Data reported in patent US12391676B2 (H. LEE MOFFITT CANCER CENTER AND RESEARCH INSTITUTE, INC., priority 2018, dated 2025).

Tests used:
BRD4 = BRD4 (Homo sapiens (Human), UniProt O60885); assay: BRD4 DSF thermal shift (ΔTm); type: binding; conditions: for BRD4 DSF (ΔTm): Table 2; for DSF ΔTm: Table 1
UKE1 cells = assay: Growth inhibition GI50, UKE1 cells; type: cell-based; conditions: UKE1, Table 2; read-out: GI50 (UKE1)
MM1.S cells = assay: Antiproliferative activity, MM1.S cells; type: cell-based; conditions: Homo sapiens; for GI50: Table 2, read-out: GI50 (MM1S); for IC50: Table 1 comments
Description: Cellular activity of promising compounds is assessed using MM.1S and MV4-11 AML cells using c-Myc levels as biomarker (6-12 hr treatment) and antiproliferative activity (48-72 hr treatment) as described (Ciceri et al., Dual kinase-bromodomain inhibitors for rationally designed polypharmacology. Nat Chem Biol 2014).

BRD4 DSF (ΔTm) (BRD4) | GI50 (MM1.S cells) | SMILES | GI50 (UKE1 cells) | further results
3.9 °C | – | Cc1cnc(Nc2cc(F)c(C3CCN(C)CC3)c(F)c2)nc1Nc1ccc2ccn(S(=O)(=O)C(C)(C)C)c2n1 [MA11-012, N4-(1-(tert-butylsulfonyl)-1H-pyrrolo[2,3-b]pyridin-6-yl)-N2-(3,5-difluoro-4-(1-methylpiperidin-4-yl)phenyl)-5-methylpyrimidine-2,4-diamine] | 0.58 µM | –
14.8 °C | – | Cc1cnc(Nc2ccc(C3CCN(C)CC3)c(F)c2)nc1Nc1cnc(Cl)c(NS(=O)(=O)C(C)(C)C)c1 [MA11-016, N-(2-chloro-5-((2-((3-fluoro-4-(1-methylpiperidin-4-yl)phenyl)amino)-5-methylpyrimidin-4-yl)amino)pyridin-3-yl)-2-methylpropane-2-sulfonamide] | 0.11 µM | –
14.3 °C | – | Cc1cnc(Nc2cc(F)c(C3CCN(C)CC3)c(F)c2)nc1Nc1cnc(Cl)c(NS(=O)(=O)C(C)(C)C)c1 [MA11-017, N-(2-chloro-5-((2-((3,5-difluoro-4-(1-methylpiperidin-4-yl)phenyl)amino)-5-methylpyrimidin-4-yl)amino)pyridin-3-yl)-2-methylpropane-2-sulfonamide] | 0.102 µM | –
– | – | Cc1cnc(Nc2ccc(C3CCN(C)CC3)c(F)c2)nc1Nc1cccc(NS(=O)(=O)C(C)(C)C)n1 [MA11-032, N-(6-((2-((3-fluoro-4-(1-methylpiperidin-4-yl)phenyl)amino)-5-methylpyrimidin-4-yl)amino)pyridin-2-yl)-2-methylpropane-2-sulfonamide] | 0.385 µM | –
5.1 °C | – | Cc1cnc(Nc2cc(F)c(C3CCN(C)CC3)c(F)c2)nc1Nc1cccc(NS(=O)(=O)C(C)(C)C)n1 [MA11-035, N-(6-((2-((3,5-difluoro-4-(1-methylpiperidin-4-yl)phenyl)amino)-5-methylpyrimidin-4-yl)amino)pyridin-2-yl)-2-methylpropane-2-sulfonamide] | 0.761 µM | –
– | – | Cc1cnc(Nc2cc(F)c(C3CCN(C)CC3)cn2)nc1Nc1cccc(NS(=O)(=O)C(C)(C)C)n1 [MA11-038, N-(6-((2-((4-fluoro-5-(1-methylpiperidin-4-yl)pyridin-2-yl)amino)-5-methylpyrimidin-4-yl)amino)pyridin-2-yl)-2-methylpropane-2-sulfonamide] | 5.6 µM | –
13.7 °C | 0.58 µM | CN1CCC(c2ccc(Nc3ncc(C(N)=O)c(Nc4ccc(Cl)c(NS(=O)(=O)C(C)(C)C)c4)n3)cc2F)CC1 [PN1-134, 4-((4-Chloro-3-((1,1-dimethylethyl)sulfonamido)phenyl)amino)-2-((3-fluoro-4-(1-methylpiperidin-4-yl)phenyl)amino)pyrimidine-5-carboxamide] | – | –
7.6 °C | 0.89 µM | CN1CCC(c2ccc(Nc3ncc(C#N)c(Nc4ccc(Cl)c(NS(=O)(=O)C(C)(C)C)c4)n3)cc2F)CC1 [PN1-138, N-(2-Chloro-5-((5-cyano-2-((3-fluoro-4-(1-methylpiperidin-4-yl)phenyl)amino)pyrimidin-4-yl)amino)phenyl)-2-methylpropane-2-sulfonamide] | – | –
9.5 °C | 1.8 µM | CN1CCC(c2ccc(Nc3ncc(N)c(Nc4ccc(Cl)c(NS(=O)(=O)C(C)(C)C)c4)n3)cc2F)CC1 [PN1-140, N-(5-((5-Amino-2-((3-fluoro-4-(1-methylpiperidin-4-yl)phenyl)amino)pyrimidin-4-yl)amino)-2-chlorophenyl)-2-methylpropane-2-sulfonamide] | – | –
7.1 °C | 0.22 µM | CN1CCC(c2ccc(Nc3ncc(-c4cnn(C)c4)c(Nc4ccc(Cl)c(NS(=O)(=O)C(C)(C)C)c4)n3)cc2F)CC1 [PN1-145, N-(2-Chloro-5-((2-((3-fluoro-4-(1-methylpiperidin-4-yl)phenyl)amino)-5-(1-methyl-1H-pyrazol-4-yl)pyrimidin-4-yl)amino)phenyl)-2-methylpropane-2-sulfonamide] | – | –
13.0 °C | 0.109 µM | Cc1cnc(Nc2ccc(C3CCN(C)CC3)c(F)n2)nc1Nc1ccc(Cl)c(NS(=O)(=O)C(C)(C)C)c1 [PN2-102, N-(2-Chloro-5-((2-((6-fluoro-5-(1-methylpiperidin-4-yl)pyridin-2-yl)amino)-5-methylpyrimidin-4-yl)amino)phenyl)-2-methylpropane-2-sulfonamide] | – | –
12.1 °C | 0.104 µM | Cc1cnc(Nc2ccc(C3CCN(C)CC3)c(F)n2)nc1Nc1ccc(F)c(NS(=O)(=O)C(C)(C)C)c1 [PN2-116, N-(2-Fluoro-5-((2-((6-fluoro-5-(1-methylpiperidin-4-yl)pyridin-2-yl)amino)-5-methylpyrimidin-4-yl)amino)phenyl)-2-methylpropane-2-sulfonamide] | – | –
11.0 °C | 0.153 µM | Cc1cnc(Nc2ccc(C3CCN(C)CC3)c(F)n2)nc1Nc1cccc(NS(=O)(=O)C(C)(C)C)c1 [PN2-117, N-(3-((2-((6-Fluoro-5-(1-methylpiperidin-4-yl)pyridin-2-yl)amino)-5-methylpyrimidin-4-yl)amino)phenyl)-2-methylpropane-2-sulfonamide] | – | –
13.0 °C | 0.083 µM | Cc1cnc(Nc2ccc(C3CCN(C)CC3)c(F)c2)nc1Nc1ccc(F)c(NS(=O)(=O)C(C)(C)C)c1 [PN2-118, N-(2-Fluoro-5-((2-((3-fluoro-4-(1-methylpiperidin-4-yl)phenyl)amino)-5-methylpyrimidin-4-yl)amino)phenyl)-2-methylpropane-2-sulfonamide] | – | –
15.2 °C | 0.093 µM | Cc1cnc(Nc2cc(F)c(C3CCN(C)CC3)c(F)c2)nc1Nc1ccc(Cl)c(NS(=O)(=O)C(C)(C)C)c1 [PN2-122, N-(2-Chloro-5-((2-((3,5-difluoro-4-(1-methylpiperidin-4-yl)phenyl)amino)-5-methylpyrimidin-4-yl)amino)phenyl)-2-methylpropane-2-sulfonamide] | – | –
14.7 °C | 0.081 µM | Cc1cnc(Nc2cc(F)c(C3CCN(C)CC3)c(F)c2)nc1Nc1ccc(F)c(NS(=O)(=O)C(C)(C)C)c1 [PN2-123, N-(5-((2-((3,5-Difluoro-4-(1-methylpiperidin-4-yl)phenyl)amino)-5-methylpyrimidin-4-yl)amino)-2-fluorophenyl)-2-methylpropane-2-sulfonamide] | – | –
13.4 °C | 0.08 µM | Cc1cnc(Nc2cc(F)c(C3CCN(C)CC3)c(F)c2)nc1Nc1cccc(NS(=O)(=O)C(C)(C)C)c1 [PN2-124, N-(3-((2-((3,5-Difluoro-4-(1-methylpiperidin-4-yl)phenyl)amino)-5-methylpyrimidin-4-yl)amino)phenyl)-2-methylpropane-2-sulfonamide] | – | –
12.3 °C | – | Cc1ccc(Nc2nc(Nc3ccc(C4CCN(C)CC4)c(F)c3)ncc2C)cc1NS(=O)(=O)C(C)(C)C [PN2-173, N-(5-((2-((3-Fluoro-4-(1-methylpiperidin-4-yl)phenyl)amino)-5-methylpyrimidin-4-yl)amino)-2-methylphenyl)-2-methylpropane-2-sulfonamide] | 0.463 µM | –
– | – | Cc1cnc(Nc2ccc(C3CCN(C)CC3)c(F)c2)nc1Nc1cc(F)cc(NS(=O)(=O)C(C)(C)C)c1 [PN3-052, N-(3-Fluoro-5-((2-((3-fluoro-4-(1-methylpiperidin-4-yl)phenyl)amino)-5-methylpyrimidin-4-yl)amino)phenyl)-2-methylpropane-2-sulfonamide] | 0.27 µM | –
– | – | Cc1cnc(Nc2cc(F)c(C3CCN(C)CC3)c(F)c2)nc1Nc1cc(F)cc(NS(=O)(=O)C(C)(C)C)c1 [PN3-053, N-(3-((2-((3,5-Difluoro-4-(1-methylpiperidin-4-yl)phenyl)amino)-5-methylpyrimidin-4-yl)amino)-5-fluorophenyl)-2-methylpropane-2-sulfonamide] | 0.185 µM | –
– | – | Cc1cnc(Nc2cc(F)c(C3CCN(C)CC3)cn2)nc1Nc1cc(F)cc(NS(=O)(=O)C(C)(C)C)c1 [PN3-054, N-(3-Fluoro-5-((2-((4-fluoro-5-(1-methylpiperidin-4-yl)pyridin-2-yl)amino)-5-methylpyrimidin-4-yl)amino)phenyl)-2-methylpropane-2-sulfonamide] | 0.449 µM | –
– | – | Cc1cnc(Nc2cc(F)c(C3CCN(C)CC3)cn2)nc1Nc1cc(Cl)cc(NS(=O)(=O)C(C)(C)C)c1 [PN3-074, N-(3-Chloro-5-((2-((4-fluoro-5-(1-methylpiperidin-4-yl)pyridin-2-yl)amino)-5-methylpyrimidin-4-yl)amino)phenyl)-2-methylpropane-2-sulfonamide] | 0.937 µM | –
– | – | Cc1cnc(Nc2cc(F)c(C3CCN(C)CC3)c(F)c2)nc1Nc1cc(Cl)cc(NS(=O)(=O)C(C)(C)C)c1 [PN3-075, N-(3-Chloro-5-((2-((3,5-difluoro-4-(1-methylpiperidin-4-yl)phenyl)amino)-5-methylpyrimidin-4-yl)amino)phenyl)-2-methylpropane-2-sulfonamide] | 0.556 µM | –
– | – | Cc1cnc(Nc2ccc(C3CCN(C)CC3)c(F)c2)nc1Nc1cc(Cl)cc(NS(=O)(=O)C(C)(C)C)c1 [PN3-076, N-(3-Chloro-5-((2-((3-fluoro-4-(1-methylpiperidin-4-yl)phenyl)amino)-5-methylpyrimidin-4-yl)amino)phenyl)-2-methylpropane-2-sulfonamide] | 1.1 µM | –
6.7 °C | 1.6 µM | Cc1cnc(Nc2ccc(C3CCN(C)CC3)c(F)c2)cc1Nc1cccc(NS(=O)(=O)C(C)(C)C)c1 [SY3-039, N-(3-((2-((3-Fluoro-4-(1-methylpiperidin-4-yl)phenyl)amino)-5-methylpyridin-4-yl)amino)phenyl)-2-methylpropane-2-sulfonamide] | – | –
– | – | Cc1cnc(Nc2cc(F)cc(N3CCN(C)CC3)c2)nc1Nc1ccc(Cl)c(NS(=O)(=O)C(C)(C)C)c1 [drawing 10] | – | DSF ΔTm (BRD4): 11.1 °C; IC50 (MM1.S cells): 0.16 µM
– | – | Cc1cnc(Nc2cc(F)cc(N3CCN(C)CC3)c2)nc1Nc1cccc(NS(=O)(=O)C(C)(C)C)c1 [drawing 14] | – | DSF ΔTm (BRD4): 11.1 °C; IC50 (MM1.S cells): 0.22 µM
